In US20260327239A1, “COMPOUNDS FOR COVALENT INHIBITION OF SHP2” (Purdue Research Foundation, priority 2023, published 2026):

Target: T1, LYP (Homo sapiens, UniProt Q9Y2R2)
T1 sequence (Q9Y2R2 1-807): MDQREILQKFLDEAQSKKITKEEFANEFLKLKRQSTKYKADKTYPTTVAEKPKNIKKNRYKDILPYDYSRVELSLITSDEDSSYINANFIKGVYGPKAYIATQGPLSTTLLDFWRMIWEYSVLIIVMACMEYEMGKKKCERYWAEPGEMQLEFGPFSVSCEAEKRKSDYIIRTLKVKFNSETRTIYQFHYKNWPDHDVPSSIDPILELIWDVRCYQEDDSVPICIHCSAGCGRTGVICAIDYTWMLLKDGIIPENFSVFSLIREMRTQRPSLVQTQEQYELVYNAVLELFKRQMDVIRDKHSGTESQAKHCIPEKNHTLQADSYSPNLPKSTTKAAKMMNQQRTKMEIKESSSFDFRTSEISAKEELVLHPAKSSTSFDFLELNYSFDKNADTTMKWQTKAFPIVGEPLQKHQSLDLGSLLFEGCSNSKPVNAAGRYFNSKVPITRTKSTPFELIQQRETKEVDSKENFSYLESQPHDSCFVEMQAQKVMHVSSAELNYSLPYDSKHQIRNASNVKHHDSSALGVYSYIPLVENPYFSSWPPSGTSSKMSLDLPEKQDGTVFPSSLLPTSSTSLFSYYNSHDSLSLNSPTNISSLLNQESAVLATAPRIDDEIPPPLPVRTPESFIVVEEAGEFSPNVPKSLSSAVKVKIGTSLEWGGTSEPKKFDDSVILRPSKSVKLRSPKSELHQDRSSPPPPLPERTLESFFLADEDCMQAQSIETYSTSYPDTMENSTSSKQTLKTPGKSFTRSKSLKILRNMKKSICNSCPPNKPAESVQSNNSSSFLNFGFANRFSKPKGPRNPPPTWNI
Test: Time-dependent IC50 determination, LYP (10 min preincubation, pNPP)
Assay type: biochemical
Procedure: During active compound characterization, other common PTPs, including SHP1. PTP1B, and LYP, were counter-screened. Compounds were incubated for 10 minutes with the corresponding PTP (4 μM) before being diluted 50-fold into a solution containing excess substrate para-nitrophenyl phosphate (10 mM) to monitor the remaining activity. […] This was not expected, given their high sequence and structural homology. […] While unexpected, the lower sequence homology provides a rationale for the observed selectivity.
Inhibitors were evaluated for their ability to inhibit the reaction catalyzed by SHP2 using para-nitrophenyl phosphate (pNPP) as a substrate at pH 7 and 25° C. The reaction was started in a clear flat-bottom 96-well plate (Corning Costar Assay Plate #9017) by the addition of 25 μL of 4 μM PTP in DMG buffer to 25 μl of 2× inhibitor (final concentrations=2 μM PTP, 100-0 μM inhibitor). Reactions were incubated for 1 or 10 minutes before transferring 4 μL into 196 μL of 10.1 mM pNPP in DMG buffer (final concentration=40 nM PTP, 10 mM pNPP). These wells were then allowed to react for 10, 45, or 3 minutes for SHP1 and SHP2, LYP, PTP1B respectively before quenching with 50 μL of 5 M NaOH. Plates were then read for absorbance at 405 nm using a CLARIOstar^Plus plate reader (BMG Labetch). […]

IC50 (LYP, 10 minutes preincubation, curve not completed (solubility), extrapolated, read-out: 10 Minute IC50): 495 µM
Fold-Selective (10 Minutes) (SHP2 over LYP): 31.12
Compound: C=C1C(=O)[C@@]2(C(=O)N3CCN(c4ccc(I)cc4)CC3)CC(=O)C[C@@H]1C2 [Compound 37]
